Data set [1] is described as follows: Pilot human study of saliva flow rate (Parafilm chewed for 2 minutes, saliva weighed). It counts as in vivo. As to conditions: 0.1 mg Uritos; single subject. The protocol:
In this study, the effect of imidafenacin (Uritos®), pilocarpine, the combination of the two, and placebo was measured in separate, yet identical, studies in a single individual.
The following protocol was for a pilot human study to evaluate the extent of saliva flow rate following the administration of 0.1 mg Uritos® tablet and 5 or 10 mg pilocarpine HCl tablet after about 0.5 or 3 hrs from imidafenacin administration. The subject was a healthy, person. The subject performed the following: • 1. Fast the night before. • 2. No coffee or soda 8 hrs prior to taking the first dose. • 3. Record time voiding and measure urine if possible. • 4. Record extent of dryness of the mouth (Very dry, dry, and not dry). • 5. Record any adverse event. • 6. Chew a 1″×1″ piece of Parafilm (American National Can (Neenah, Wis. 54956) Bar code No. 7-466676999) over 2 minutes. • 7. Collect wetted Parafilm and saliva into a tared container (pre-weighed container). • 8. Measure the amount of saliva collected. • 9. Plot Saliva collected per 2 min time intervals against time.
The subject fasted overnight, but had 240 mL of water 1 hr prior to dose. The water continued ad lib until 1 hr pre and 1 hr post dose, other than 120 mL with Uritos® and 120 mL with 5 mg Salagen tablet. For lunch, the subject consumed a light sandwich. No coffee, soda, or caffeinated or alcoholic beverages was consumed. […]

The conditions of data set [2]: 5 mg of pilocarpine; cited from earlier work.

Regarding `Cc1nccn1CCC(C(N)=O)(c1ccccc1)c1ccccc1` [imidafenacin, 4-(2-methyl-1H-imidazol-1-yl)-2,2-diphenylbutanamide], in data set [1], the “Time of maximum dry mouth / maximum saliva depression point after administration” value was “about 5 hours”.
Regarding `CC[C@@H]1C(=O)OC[C@@H]1Cc1cncn1C` [pilocarpine], in data set [2], the “Time of maximum saliva output after administration” value was “about 30 minutes”.

These data come from US20120289563A1, “COMBINATIONS OF IMIDAFENACIN AND SALIVARY STIMULANTS FOR THE TREATMENT OF OVERACTIVE BLADDER” (THERAVIDA, INC., priority 2011, published 2012).
